Measurements taken from PubChem BioAssay (NCI).
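Grown in 96-well plates, cells were treated for 48 hours with each compound at five concentrations. Insufficient inhibition: endpoint recorded as highest concentration tested. The concentration for full growth arrest is given as TGI.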

Assays:
Test in all cases: growth of human tumour cells (NCI), 48 h
[1] = test system: A498 renal
[2] = test system: DU-145 prostate
[3] = test system: HS 578T breast
[4] = test system: HT29 colon
[5] = test system: KM12 colon
[6] = test system: MALME-3M melanoma
[7] = test system: MDA-N
[8] = test system: SF-268 CNS
[9] = test system: SW-620 colon
[10] = test system: U251 CNS
[11] = test system: UACC-257 melanoma
[12] = test system: UACC-62 melanoma

## Cc1ccc(C(=O)Nc2ccc(CP(=O)(O)O)cc2)cc1NC(=O)c1cccc(NC(=O)Nc2cccc(C(=O)Nc3cc(C(=O)Nc4ccc(CP(=O)(O)O)cc4)ccc3C)c2)c1
[1]
  TGI: > 100 µM
[2]
  TGI: > 100 µM
[3]
  TGI: > 100 µM
[4]
  TGI: > 100 µM
[5]
  TGI: > 100 µM
[6]
  TGI: > 100 µM
[7]
  TGI: > 100 µM
[8]
  TGI: > 100 µM
[9]
  TGI: > 100 µM
[10]
  TGI: > 100 µM
[11]
  TGI: > 100 µM
[12]
  TGI: > 100 µM

## O=C1C(Br)=Cc2c(Cl)sc(Cl)c21
[1]
  TGI: 52.1 µM
[2]
  TGI: 18 µM
[3]
  TGI: > 93.8 µM
[4]
  TGI: 27.3 µM
[5]
  TGI: 20.3 µM
[6]
  TGI: 29 µM
[7]
  TGI: 8.7 µM
[8]
  TGI: > 28 µM
[9]
  TGI: 12.9 µM
[10]
  TGI: 7.53 µM
[11]
  TGI: > 28.5 µM
[12]
  TGI: 27.2 µM

## Cc1nc2cc(C(F)(F)F)ccc2[nH]c1=O
[1]
  TGI: > 100 µM
[2]
  TGI: > 100 µM
[3]
  TGI: > 100 µM
[4]
  TGI: > 100 µM
[5]
  TGI: > 100 µM
[6]
  TGI: > 100 µM
[7]
  TGI: > 100 µM
[8]
  TGI: > 100 µM
[9]
  TGI: > 100 µM
[10]
  TGI: > 100 µM
[11]
  TGI: > 100 µM
[12]
  TGI: > 100 µM

## COC(=O)C1CC(C=[N+](C)C)=C(SC)N1 (stereo not drawn)
[1]
  TGI: > 100 µM
[2]
  TGI: > 100 µM
[3]
  TGI: > 100 µM
[4]
  TGI: > 100 µM
[5]
  TGI: > 100 µM
[6]
  TGI: > 100 µM
[7]
  TGI: > 100 µM
[8]
  TGI: > 100 µM
[9]
  TGI: > 100 µM
[10]
  TGI: > 100 µM
[11]
  TGI: > 100 µM
[12]
  TGI: > 100 µM
